From patent US20130017198A1, “MANIPULATION OF CALCIUM CHANNELS TO REGULATE AFTER-DEPOLARIZATION EVENTS IN CARDIAC MYOCYTES” (THE UAB RESEARCH FOUNDATION, priority 2010, published 2013)
“Also recorded” adds a separate entry of the source. Read-outs that look alike come from different tables or passages of the source.

Assays:
CPLA2 = target: T1, CPLA2 (Homo sapiens, UniProt P47712); conditions: selective inhibitor of CPLA2; cited from earlier work
T1 sequence (P47712 1-749): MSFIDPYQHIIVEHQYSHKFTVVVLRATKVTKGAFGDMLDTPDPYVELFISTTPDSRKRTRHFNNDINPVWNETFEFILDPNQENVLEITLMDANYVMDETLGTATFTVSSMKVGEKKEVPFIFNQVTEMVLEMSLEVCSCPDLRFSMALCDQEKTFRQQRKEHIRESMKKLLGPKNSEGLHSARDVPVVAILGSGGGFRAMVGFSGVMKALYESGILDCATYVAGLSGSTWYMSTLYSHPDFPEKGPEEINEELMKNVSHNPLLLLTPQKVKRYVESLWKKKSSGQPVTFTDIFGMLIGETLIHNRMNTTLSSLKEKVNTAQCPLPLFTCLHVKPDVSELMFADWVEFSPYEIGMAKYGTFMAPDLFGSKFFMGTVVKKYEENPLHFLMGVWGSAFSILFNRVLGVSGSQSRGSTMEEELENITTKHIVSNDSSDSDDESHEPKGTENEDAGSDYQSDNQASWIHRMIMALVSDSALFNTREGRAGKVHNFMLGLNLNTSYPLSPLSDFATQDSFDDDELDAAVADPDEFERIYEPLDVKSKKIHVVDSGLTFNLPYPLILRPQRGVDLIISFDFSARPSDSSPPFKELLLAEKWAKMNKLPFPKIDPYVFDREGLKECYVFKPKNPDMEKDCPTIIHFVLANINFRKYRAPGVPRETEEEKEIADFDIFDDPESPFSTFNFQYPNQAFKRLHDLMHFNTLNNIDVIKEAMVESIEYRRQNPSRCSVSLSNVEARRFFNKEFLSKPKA

CPLA2 activity in vivo = conditions: cited from earlier work
[1] = system: left atrial appendage (LAA); assay: Action potential recording / after-depolarization in paced superfused rat LAA exposed to ATX-II; conditions: for action potential duration: ~30 nM ATX-II plus LOE-908 or SKF-96365
Text: For example, isolated superfused muscles can be impaled with conventional glass microelectrodes of 10 to 30 MΩ resistance; these microelectrodes are filled with a solution of 3 M potassium chloride. Microelectrodes are routinely mounted on 30 μm silver-silver chloride spiral wire to allow for freedom of motion. Following the successful impalement of an individual myocyte, action potentials can be recorded with DC coupling at the center of the ring as the difference in voltage between the intracellular microelectrode and the extracellular silver-silver chloride reference electrode. Electrical signals are passed through a high-impedance capacitance-compensation preamplifier and are recorded on a personal computer at a sampling rate of […]. Subsequent data analysis of the action potentials of these muscles is performed using standard software (for an example of such a protocol, see Huang J et al., “Restitution properties during ventricular fibrillation in the in situ swine heart” Circulation 110:3161-3167 (2004), which is hereby incorporated by reference only for such teaching).
(§1) To determine whether ATX-II prolongs action potential duration and provokes after-depolarization and after-contractions, paced isolated rat LAA were superfused at 30° C., impaled with glass microelectrodes, and their action potentials were recorded. ATX-II was then added to the superfusate at about 30 nM and action potentials were recorded again.
(§2) A series of experiments was performed to test the hypothesis that the calcium source for after-depolarization is the ARC channel. To test whether after-contractions and after-depolarization require ARC or SOCC activity, experiments were performed with the ARC channel inhibitor LOE-908 and with the SOCC inhibitor SKF-96365. Rat LAA were superfused at 30° C. and exposed to ˜30 nM ATX-II. After 10-15 minutes, these muscles produced steady-state after-contractions, prolonged action potential duration and after-depolarization as shown previously.

[2] = system: left atrial appendage (LAA); assay: Abnormal automatic activity of LAA at high ATX-II concentration; design: species or system rat
Procedure: Although moderate concentrations of ATX-II appear to cause after-contractions, high concentrations of ATX-II cause abnormal automatic activity. To further test the hypothesis that after-contractions occur via a separate mechanism from abnormal automatic activity, LAA were exposed to high concentrations (60 nM) of ATX-II. The LAA were then exposed to one of 40 μM LOE-908 without pacing, 20 μM SKF-96365 with 1 Hz pacing, or 40 μM SKF-96365 with 1 Hz pacing.

[3] = system: left atrial appendage (LAA); assay: ATX-II-induced after-contractions (mechanical activity) in paced superfused rat left atrial appendage
Procedure: as §1
The LAA was externally paced at 1 Hz throughout.
as §2, with “ATX-II.” for “ATX-II. After 10-15 minutes, these muscles produced steady-state after-contractions, prolonged action potential duration and after-depolarization as shown previously.”

ARC channel = target: T2, ARC channel (Rattus norvegicus, UniProt Q5M848+Q6AXR8); assay: Effect on ARC channel activity
T2 construct: from tissue; host or cells: rat left atrial appendage (LAA) muscle
T2 sequence (Q5M848 whole entry, other chains not shown): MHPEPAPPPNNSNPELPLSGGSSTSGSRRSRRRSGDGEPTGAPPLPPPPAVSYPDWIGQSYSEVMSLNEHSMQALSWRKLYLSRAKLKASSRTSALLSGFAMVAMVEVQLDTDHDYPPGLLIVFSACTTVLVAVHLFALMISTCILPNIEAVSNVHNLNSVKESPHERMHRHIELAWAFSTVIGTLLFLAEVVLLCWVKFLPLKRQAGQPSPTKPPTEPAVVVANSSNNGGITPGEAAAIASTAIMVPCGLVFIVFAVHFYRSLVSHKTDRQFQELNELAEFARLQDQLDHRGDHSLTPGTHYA

[4] = target: T3, store-operated calcium channel (SOCC) (Rattus norvegicus, UniProt Q5M848); assay: Effect on store-operated calcium channel activity
T3 construct: from tissue; host or cells: rat left atrial appendage (LAA) muscle
T3 sequence (Q5M848 whole entry): as the sequence (Q5M848 whole entry, other chains not shown) above

[5] = system: isolated rat cardiac muscle; assay: After-contractions in isolated rat cardiac muscle incubated with ATX-II and CPLA2 inhibitors; conditions: for IC50: isolated rat cardiac muscle incubated with ATX-II, read-out: IC50 (frequency of aftercontractions)
Procedure: In a separate experiment, isolated rat cardiac muscle was incubated with ATX-II in the presence of varying concentrations of amylcinnamoyl-anthranilic acid.

[6] = system: left atrial appendage (LAA); assay: Abnormal automatic activity produced by 2-aminoethoxy diphenylborate (SOCC activator) in calcium-loaded LAA; conditions: calcium-loaded LAA treated with 2-aminoethoxy diphenylborate
Procedure: To further test the hypothesis that the calcium source for after-depolarization is not the SOCC, calcium-loaded LAA were treated with 2-aminoethoxy diphenylborate (an activator of the SOCC) to produce abnormal automatic activity. The LAA were then treated with either LOE-908 or SKF-96365.

[7] = LAA pre-treated with the compound, then ATX-II
[8] = increasing concentrations, ~30 nM ATX-II, data not shown
[9] = increasing concentrations, ~30 nM ATX-II, rat LAA at 30° C.
[10] = 0.6 μM ryanodine, after steady-state ATX-II after-contractions

## O=C(CCc1ccc(OCCS(=O)(=O)CCOC(c2ccc(Cl)cc2)c2ccc(Cl)cc2)cc1)C(F)(F)F [BMS-229724, 4-[4-[2-[2-[bis(4-chlorophenyl)methoxy]ethyl-sulfonyl]ethoxy]phenyl]-1,1,1-trifluoro-2-butanone]
CPLA2
  IC50: 2.8 µM
CPLA2 activity in vivo
  CPLA2 activity in vivo / skin inflammation: suppression of skin inflammation

## ATX-II: Anemonia sulcata toxin, sodium channel regulator that increases the late sodium current; arrhythmic agent
[1]; 30 nM ATX-II, paced isolated rat LAA superfused at 30° C.
  action potential duration and early after-depolarization: produced prolonged action potential duration and produced early after-depolarization during repolarization
[2]; 60 nM ATX-II, FIG. 8A
  rate of rapid contraction in the absence of pacing: 4 Hz
[2]; 60 nM ATX-II, FIG. 8B
  rate of automatic activity persisting in the absence of pacing: 2.7-3.3 Hz
[2]; 60 nM ATX-II, left atria paced at 1 Hz
  after-contractions: displayed after-contractions
[2]; higher concentration of ATX-II
  abnormal automatic activity: displayed abnormal automatic activity
[3]
  concentration inducing arrhythmia and after-depolarization: 5 to 60 nM
[3]; 30 nM ATX-II, LAA paced at 1 Hz
  after-contractions following each paced contraction: after-contractions are observed
[3]; KH buffer with added glucose
  concentration below which the ability to induce arrhythmia starts to decrease: 10 to 50 nM

## methyl-β-cyclodextrin
ARC channel
  ARC channel activity: completely suppresses ARC channel activity
[1]
  concentration as low as which after-depolarization is effectively eliminated: 10 mM
[4]
  store-operated calcium channel (SOCC) activity: only reducing the activity of the SOCC to a minor degree
[3]; 10 mM MβC superfusion then wash, ~30 nM ATX-II, 20 min recording
  after-contractions: produced no after-contractions
[3]; cardiac muscle
  concentration as low as which ectopic contractions are effectively eliminated: 10 mM

## COc1ccc(S(=O)(=O)N(CCO)c2ccccc2CN(C)C/C=C/c2ccc(Cl)cc2)cc1 [KN-93]
[3]; [7]
  after-contractions: do not produce after-contractions; also recorded: suppression of after-contractions

## CCCCCc1ccc(/C=C/C(=O)Nc2ccccc2C(=O)O)cc1 [ACA]
[1]
  after-depolarization: suppress after-depolarization
  concentration as low as which after-depolarization is suppressed: 10 µM
[1]; listed as amylcinnamoyl-anthranilic acid
  after-depolarization: effectively inhibit after-depolarization
[5]
  after contractions: suppress after contractions
  concentration as low as which after contractions are suppressed: 10 µM
  IC50: 10 ± 4.5 µM
[5]; 0-50 μM of ACA
  frequency of aftercontractions: decrease with increasing concentration

## COc1cc2c(cc1OC)C(C(C(=O)N(CCc1ccc(OC)c(OC)c1OC)CCc1ccc(OC)c(OC)c1OC)c1ccccc1)=NCC2 (stereo not drawn) [LOE-908]
ARC channel
  ARC channel activity: inhibit the activity of the ARC channel
[1]
  concentration as low as which after-depolarization is effectively reduced: 1 µM
  action potential duration: remained prolonged
[1]; 20 μM
  after-depolarization: no after-depolarization is observed
[1]; [8]
  after-depolarization: The same was observed
[2]; 60 nM ATX-II, 40 μM LOE-908 without pacing
  abnormal automatic activity: failed to suppress abnormal automatic activity
[4]
  store-operated calcium channel (SOCC) activity: no effect on the activity of the store-operated calcium channel
[3]; 20 μM
  ectopic contractions: no ectopic contractions are observed
[3]; cardiac muscle
  concentration as low as which ectopic contractions are effectively reduced: 1 µM
[3]; [9]
  after-contractions: suppressed after-contractions in a dose-dependent manner

## COc1ccc(CCN(C)CCCC(C#N)(c2ccc(OC)c(OC)c2)C(C)C)cc1OC (stereo not drawn) [verapamil]
[3]; 10 μM verapamil, paced at 1 Hz, steady-state ATX-II after-contractions
  production of after-contractions: did not affect the production of after-contractions

## COc1cccc2c1cc([N+](=O)[O-])c1c(C(=O)O)cc3c(c12)OCO3 [aristolochic acid, 8-methoxy-6-nitrophenanthro[3,4-d][1,3]dioxole-5-carboxylic acid]
[1]
  after-depolarization: effectively inhibit after-depolarization; also recorded: suppress after-depolarization
[5]
  after contractions: suppress after contractions
  IC50: 31 ± 5 µM

## ryanodine
[3]; [10]
  after-contractions: after-contractions continued to occur
  mechanical force: greatly diminished mechanical force

## COc1ccc(S(=O)(=O)Nc2ccccc2CN(C)C/C=C/c2ccc(Cl)cc2)cc1 [KN-92]
[3]; [7]
  after-contractions: does not prevent after-contractions; also recorded: does not suppress after-contractions

## COc1ccc(CCCOC(Cn2ccnc2)c2ccc(OC)cc2)cc1 (stereo not drawn) [SKF-96365]
[6]
  rate of spontaneous contractions caused by activation of the SOCC: reduces the rate of spontaneous contractions
[1]; [8]
  after-depolarization: The same was observed
[1]
  action potential duration: remained prolonged
[2]; 60 nM ATX-II, 20 μM or 40 μM SKF-96365 with 1 Hz pacing
  abnormal automatic activity: either reduced or eliminated abnormal automatic activity
[3]; [9]
  after-contractions: suppressed after-contractions in a dose-dependent manner
